Laboratory results from ChEMBL document CHEMBL1201862, “PubChem BioAssay data set” (2004).
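Method: 48-hour compound exposure of cells in 96-well plates, five concentrations, linear interpolation of endpoints. GI50 is the concentration that inhibits growth by half.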 Active and inactive are the calls of the source. Rule as the data show it: active = GI50 up to about 1.1 µM and inactive = higher.

Tests used:
Experiment in all cases: growth of human tumour cells (NCI), 48 h
SF-295 = test system: SF-295
U-251 = test system: U-251
Malme-3M = test system: Malme-3M
A549 = test system: A549
HL-60 = test system: HL-60
HCT-15 = test system: HCT-15
SR = test system: SR
HOP-62 = test system: HOP-62
K562 = test system: K562
RPMI-8226 = test system: RPMI-8226
COLO 205 = test system: COLO 205
SK-OV-3 = test system: SK-OV-3
UO-31 = test system: UO-31
OVCAR-5 = test system: OVCAR-5
SF-268 = test system: SF-268
CAKI-1 = test system: CAKI-1
HOP-92 = test system: HOP-92
CCRF-CEM = test system: CCRF-CEM
OVCAR-8 = test system: OVCAR-8
SK-MEL-28 = test system: SK-MEL-28

SMILES	GI50 (SF-295)	GI50 (U-251)	GI50 (Malme-3M)	GI50 (A549)	GI50 (HL-60)	GI50 (HCT-15) [µM]	GI50 (SR)	GI50 (HOP-62)	GI50 (K562)	GI50 (RPMI-8226)	GI50 (COLO 205)	GI50 (SK-OV-3)	GI50 (UO-31)	GI50 (OVCAR-5)	GI50 (SF-268)	GI50 (CAKI-1)	GI50 (HOP-92)	GI50 (CCRF-CEM)	GI50 (OVCAR-8)	GI50 (SK-MEL-28)
O=C(O)c1cc(C(=O)O)nc(C(=O)O)c1	> 100 µM (inactive)	> 100 µM (inactive)	> 100 µM (inactive)	> 100 µM (inactive)	> 100 µM (inactive)	> 100	> 100 µM (inactive)	> 100 µM (inactive)	> 100 µM (inactive)	> 100 µM (inactive)	> 100 µM (inactive)	> 100 µM (inactive)	> 100 µM (inactive)	> 100 µM (inactive)	> 100 µM (inactive)	> 100 µM (inactive)	> 100 µM (inactive)	42.7 µM (inactive)	> 100 µM (inactive)	> 100 µM (inactive)
Nc1nc2c(C(=O)NCc3cccs3)nnn2c2cccc(Cl)c12	> 100 µM (inactive)	> 100 µM (inactive)	> 100 µM (inactive)	> 100 µM (inactive)	> 100 µM (inactive)	> 100	52.2 µM (inactive)	> 100 µM (inactive)	> 100 µM (inactive)	39.7 µM (inactive)	> 100 µM (inactive)	> 100 µM (inactive)	87.5 µM (inactive)	45.3 µM (inactive)	> 100 µM (inactive)	> 100 µM (inactive)	79.3 µM (inactive)	22.3 µM (inactive)	84.7 µM (inactive)	92.3 µM (inactive)
CC[P+](c1ccccc1)(N(C)C)N(C)C	> 100 µM (inactive)	53.8 µM (inactive)	> 100 µM (inactive)	> 100 µM (inactive)	> 100 µM (inactive)	> 100	> 100 µM (inactive)	> 100 µM (inactive)	> 100 µM (inactive)	71.9 µM (inactive)	> 100 µM (inactive)	> 100 µM (inactive)	> 100 µM (inactive)	> 100 µM (inactive)	95.1 µM (inactive)	> 100 µM (inactive)	38.9 µM (inactive)	> 100 µM (inactive)	> 100 µM (inactive)	> 100 µM (inactive)
CC(C)C1OC(/C=C/c2ccccc2)OCC1(C)C (stereo not given)	31 µM (inactive)	24.9 µM (inactive)	0.91 µM (active)	29.9 µM (inactive)	19.9 µM (inactive)	24.8	30.1 µM (inactive)	32.1 µM (inactive)	25.4 µM (inactive)	17.8 µM (inactive)	16.6 µM (inactive)	48.3 µM (inactive)	34.8 µM (inactive)	44.5 µM (inactive)	33 µM (inactive)	31.8 µM (inactive)	17.9 µM (inactive)	20.9 µM (inactive)	31.6 µM (inactive)	53.3 µM (inactive)
COc1c(O)c2ccccc2c2cc(O)ccc12	10 µM (inactive)	5.22 µM (inactive)	1.66 µM (inactive)	8.65 µM (inactive)	2.86 µM (inactive)	6.34	12.4 µM (inactive)	10.6 µM (inactive)	2.72 µM (inactive)	7.21 µM (inactive)	16 µM (inactive)	20.5 µM (inactive)	4.04 µM (inactive)	13.4 µM (inactive)	10.8 µM (inactive)	11.2 µM (inactive)	10.6 µM (inactive)	6.24 µM (inactive)	3.88 µM (inactive)	4.91 µM (inactive)
COC(=O)[C@@H]1CN(C(=O)CCc2ccccc2)C(=O)N1	> 100 µM (inactive)	> 100 µM (inactive)	> 100 µM (inactive)	> 100 µM (inactive)	> 100 µM (inactive)	> 100	> 100 µM (inactive)	> 100 µM (inactive)	> 100 µM (inactive)	> 100 µM (inactive)	> 100 µM (inactive)	> 100 µM (inactive)	50.2 µM (inactive)	> 100 µM (inactive)	> 100 µM (inactive)	> 100 µM (inactive)	> 100 µM (inactive)	> 100 µM (inactive)	> 100 µM (inactive)	> 100 µM (inactive)
CCN(CC)CCCN(c1cc(OC)cc2nccnc12)S(=O)(=O)c1ccc(C)cc1	> 100 µM (inactive)	> 100 µM (inactive)	> 100 µM (inactive)	> 100 µM (inactive)	> 100 µM (inactive)	> 100	> 100 µM (inactive)	> 100 µM (inactive)	> 100 µM (inactive)	> 100 µM (inactive)	> 100 µM (inactive)	> 100 µM (inactive)	> 100 µM (inactive)	> 100 µM (inactive)	> 100 µM (inactive)	> 100 µM (inactive)	> 100 µM (inactive)	99.1 µM (inactive)	> 100 µM (inactive)	> 100 µM (inactive)
CC(=O)Nc1ccc(N2C(=O)/C(=C\c3cccc(Oc4ccccc4)c3)SC2c2ccccc2)cc1 (stereo not given)	38.5 µM (inactive)	14.7 µM (inactive)	28 µM (inactive)	27.1 µM (inactive)	25.4 µM (inactive)	78.5	21 µM (inactive)	22.6 µM (inactive)	33.1 µM (inactive)	24.7 µM (inactive)	70.3 µM (inactive)	16.1 µM (inactive)	82.6 µM (inactive)	> 100 µM (inactive)	50.6 µM (inactive)	66.4 µM (inactive)	16.6 µM (inactive)	17.3 µM (inactive)	17.1 µM (inactive)	27.4 µM (inactive)
COc1ccc(/N=C(C)/C(C)=N/c2ccc(OC)cc2)cc1	17 µM (inactive)	> 100 µM (inactive)	> 100 µM (inactive)	37.9 µM (inactive)	52.2 µM (inactive)	15.6	65.6 µM (inactive)	> 100 µM (inactive)	64.9 µM (inactive)	25.1 µM (inactive)	14.4 µM (inactive)	> 100 µM (inactive)	6.97 µM (inactive)	> 100 µM (inactive)	52.5 µM (inactive)	35.5 µM (inactive)	88.1 µM (inactive)	39.1 µM (inactive)	58.6 µM (inactive)	> 100 µM (inactive)
O=C(N/N=C/c1c(-c2ccccc2)no[n+]1[O-])N1CCOCC1	> 100 µM (inactive)	> 100 µM (inactive)	> 100 µM (inactive)	> 100 µM (inactive)	23.3 µM (inactive)	> 100	0.264 µM (active)	> 100 µM (inactive)	> 100 µM (inactive)	> 100 µM (inactive)	> 100 µM (inactive)	> 100 µM (inactive)	> 100 µM (inactive)	> 100 µM (inactive)	> 100 µM (inactive)	> 100 µM (inactive)	> 100 µM (inactive)	> 100 µM (inactive)	> 100 µM (inactive)	> 100 µM (inactive)
Cc1c(C=C(C#N)C#N)c(=O)n(C)c(=O)n1C	> 100 µM (inactive)	> 100 µM (inactive)	> 100 µM (inactive)	> 100 µM (inactive)	> 100 µM (inactive)	> 100	32.9 µM (inactive)	> 100 µM (inactive)	> 100 µM (inactive)	72.8 µM (inactive)	> 100 µM (inactive)	> 100 µM (inactive)	> 100 µM (inactive)	> 100 µM (inactive)	> 100 µM (inactive)	> 100 µM (inactive)	> 100 µM (inactive)	19.6 µM (inactive)	> 100 µM (inactive)	> 100 µM (inactive)
N#Cc1ccc(Oc2nc3ccccc3nc2C(=O)O)cc1	> 100 µM (inactive)	> 100 µM (inactive)	> 100 µM (inactive)	> 100 µM (inactive)	> 100 µM (inactive)	> 100	> 100 µM (inactive)	> 100 µM (inactive)	> 100 µM (inactive)	> 100 µM (inactive)	> 100 µM (inactive)	> 100 µM (inactive)	> 100 µM (inactive)	> 100 µM (inactive)	> 100 µM (inactive)	> 100 µM (inactive)	> 100 µM (inactive)	> 100 µM (inactive)	> 100 µM (inactive)	> 100 µM (inactive)
NNC(=O)C(=O)NN=C(C(Cl)(Cl)CO)C(Cl)(Cl)CO	66.1 µM (inactive)	19.5 µM (inactive)	19.8 µM (inactive)	> 100 µM (inactive)	22.1 µM (inactive)	25.7	18.6 µM (inactive)	70.8 µM (inactive)	36.7 µM (inactive)	27.4 µM (inactive)	> 100 µM (inactive)	> 100 µM (inactive)	45.7 µM (inactive)	31.3 µM (inactive)	36.4 µM (inactive)	26.9 µM (inactive)	33.4 µM (inactive)	19.1 µM (inactive)	21.3 µM (inactive)	25.6 µM (inactive)
O=S(=O)(O)c1ccc2c(/N=N/c3cccc4ccccc34)c(O)ccc2c1	39.1 µM (inactive)	87.1 µM (inactive)	> 100 µM (inactive)	> 100 µM (inactive)	> 100 µM (inactive)	> 100	> 100 µM (inactive)	> 100 µM (inactive)	> 100 µM (inactive)	> 100 µM (inactive)	> 100 µM (inactive)	> 100 µM (inactive)	> 100 µM (inactive)	> 100 µM (inactive)	> 100 µM (inactive)	> 100 µM (inactive)	> 100 µM (inactive)	> 100 µM (inactive)	> 100 µM (inactive)	> 100 µM (inactive)
